Patent publication US5075224A, “Prepro-LHRH C-terminal peptide DNA” (Genentech, Inc., priority 1991, dated 1991)
Ends that are not written are not given here. Peptide text beside a SMILES is read from it.

Test system: Pituitary cells from female Sprague-Dawley rats
Assay: LH and FSH release from rat pituitary cell culture
Format: cell-based
Description: Pituitary cells from female Sprague-Dawley rats were established in cell culture by the method of K. Nikolics et al., "Peptides" 2: 65-73 (1981). 1 ml of about 1×10^-8 molar concentration of GAP or LHRH in medium 199 (a nutrient medium) was added to a four day pituitary cell culture per 5×10^5 cells. After 4 hours incubation at 37° C. in 5 percent CO2 /95 percent air the cell culture supernatant fluids were assayed for release of LH and FSH.
The anterior pituitary cell culture from female Sprague-Dawley rats was prepared as described in Example 6. In FIG. 7A the indicated concentrations of GAP (open circles, 10^-11 M; open squares, 3×10^-11 M; closed circles 10^-10 M; open squares, triangle 10^-8 M) were incubated with 5×10^5 cells/ml medium in 24-well culture plates for the indicated time. Media were assayed for PRL and values were expressed in terms of rPRL-RP-2 reference protein (National Pituitary and Hormone Program). The points are means ± standard deviation of four parallel culture wells of which duplicate samples were assayed by RIA. Basal levels were determined from eight parallel wells. The curves shown represent data obtained in three to five independent cell cultures.

[1] = 10^-8 M test sample, 4 hours incubation at 37° C., four day pituitary cell culture, supernatant

CC(C)C[C@H](NC(=O)[C@H](CC(=O)O)NC(=O)[C@H](CCCNC(=N)N)NC(=O)[C@H](CC(C)C)NC(=O)[C@@H]1CCCN1C(=O)[C@H](CO)NC(=O)[C@H](CCCNC(=N)N)NC(=O)[C@@H]1CCCN1C(=O)[C@H](CCC(N)=O)NC(=O)[C@H](Cc1c[nH]cn1)NC(=O)[C@@H](NC(=O)[C@@H](NC(=O)[C@@H](N)CS)[C@@H](C)O)[C@@H](C)O)C(=O)N[C@@H](CCCCN)C(=O)O [CTP-core polypeptide of Example 4, NH2 -cys-thr-thr-his-gln-pro-arg-ser-pro-leu-arg-asp-leu-lys-COOH] (H-CTTHQPRSPLRDLK-OH)
activity in LH and FSH release (in words) (rat pituitary cells): active in LH and FSH release, albeit at higher concentrations than required for GAP

CC(C)C[C@H](NC(=O)CNC(=O)[C@H](Cc1ccc(O)cc1)NC(=O)[C@H](CO)NC(=O)[C@H](Cc1c[nH]c2ccccc12)NC(=O)[C@H](Cc1c[nH]cn1)NC(=O)[C@@H]1CCC(=O)N1)C(=O)N[C@@H](CCCNC(=N)N)C(=O)N1CCC[C@H]1C(=O)NCC(N)=O [LHRH]
FSH (pg)/5 × 10^5 cells [1]: 11403 ± 350 pg/5 × 10^5 cells | LH (pg)/5 × 10^5 cells [1]: 30503 ± 3342 pg/5 × 10^5 cells | EC50 (rat anterior pituitary cells, read-out: Half-maximal stimulation of LH release): 0.8 nM

DAENLIDSFQEIVKEVGQLAETQRFECTTHQPRSPLRDLKGALESLIEEETGQKKI [GAP]
ED50 of stimulation of FSH secretion: ~0.5 nM
